Measurements as given in patent US8580975B2, “Synthesis of macrocyclic cancer chemotherapy agents and methods of use” (Purdue Research Foundation, priority 2008, dated 2013).

Assays:
[1] = test system: P388 murine leukemia cells; test: cell proliferation assay; type: cell-based
[2] = test system: P388 murine leukemia cells; conditions: background, natural peloruside A; cited from earlier work
[3] = Mus musculus, P388 murine leukemia cells

Molecule	IC50 [1, 3] [nM]	IC50 ([1]; P388 murine leukemia cells) [nM]	also measured
CC[C@H](/C=C(/C)[C@@H]1C[C@@H](OC)C[C@H](O)C(C)(C)[C@@]2(O)O[C@@H](C[C@@H](OC)CC(=O)O1)C[C@@H](OC)[C@H]2O)CO [2-des-Hydroxy-Peloruside A]	120	–	–
(+)-Peloruside A [reference compound]	–	10	IC50 value, antitumor activity against P388 murine leukemia cells [2]: 0.01 µg/mL
epi-C-11 Peloruside A	–	10	–
CC[C@H](/C=C(/C)[C@@H]1C[C@@H](OC)C[C@H](O)C(C)(C)C(=O)[C@H](O)[C@H](OC)C[C@@H](O)C[C@@H](OC)CC(=O)O1)CO [Open Chain Isomer Of 2-Des-Hydroxy-Peloruside A]	–	–	IC50 ([1]; Mus musculus, P388): > 5000 nM
CC[C@H](/C=C(/C)[C@@H]1C[C@@H](OC)C[C@H](O)C(C)(C)[C@@]2(O)O[C@@H](C[C@@H](OC)CC(=O)O1)C[C@@H](O)[C@H]2O)CO [2-des-Hydroxy-7-des-methoxy-7-hydroxy-Peloruside A]	320	–	–
